{"source": "patent US6745512B1", "about": "(priority 1990, dated 2004)", "tested_on": "harmful organisms such as smut (Ustilago nuda), Fusaria and Septoria nodorum", "assay": "combined use of low energy electrons with subsequent fungicidal treatment of the seeds", "settings": "low energy electrons followed by fungicidal treatment of the seeds; 15 g, 30 g/100 kg seeds"}
{"smiles": "Cc1oc(C)c(C(=O)Nc2ccccc2)c1C", "note": "[Methfuroxam]", "values": [{"measurement": "harmful organisms combated", "value": "95 to 100", "unit": "%"}]}
